According to patent US5001228A, “Bis-alkylamide azo polymerization initiators” (Wako Pure Chemical Industries, Ltd., priority 1988, dated 1991):

Experiments:
Solubility (15° C.) = format: physicochemical; settings: for Solubility in DMF: dimethylformamide (DMF); for solubility: water
[1] = Decomposition rate constant; format: physicochemical; settings: 80° C.

Structure (SMILES) | Solubility in acetone (Solubility (15° C.)) | Solubility in DMF (Solubility (15° C.)) | Solubility in methanol (Solubility (15° C.)) | Solubility in toluene (Solubility (15° C.)) | solubility (Solubility (15° C.)) | Decomposition rate constant [1]
C=CCNC(=O)C(C)(C)N=NC(C)(C)C(=O)NCC=C [Compound (2), 2,2'-azobis[N-(2-propenyl)-2-methylpropionamide]] | ≥ 10% | ≥ 10% | ≥ 10% | ≥ 10% | ≤ 10000 µg/mL | 2.80 × 10^-6 sec.^-1
CC(C)(N=NC(C)(C)C(=O)NCc1ccc(Cl)cc1)C(=O)NCc1ccc(Cl)cc1 [Compound (3), 2,2'-azobis[N-(p-chlorobenzyl)-2-methylpropionamide]] | ≥ 10% | ≥ 10% | ~5% | ≤ 1% | ≤ 10000 µg/mL | –
CC(C)(N=NC(C)(C)C(=O)NCc1cccnc1)C(=O)NCc1cccnc1 [Compound (4), 2,2'-azobis[N-[(pyridin-3-yl)methyl]-2-methylpropionamide]·2H2 O] | 3% | 1.5% | ≥ 10% | – | ≤ 10000 µg/mL | –

The next lines start with the values.

Solubility in acetone (Solubility (15° C.)) | Solubility in DMF (Solubility (15° C.)) | Solubility in methanol (Solubility (15° C.)) | Solubility in toluene (Solubility (15° C.)) | solubility (Solubility (15° C.)) | Decomposition rate constant [1] | Structure (SMILES)
≤ 1% | 3% | ~9% | – | ≤ 10000 µg/mL | – | CC(C)(N=NC(C)(C)C(=O)NCc1ccncc1)C(=O)NCc1ccncc1 [Compound (5), 2,2'-azobis[N-[(pyridin-4-yl)methyl]-2-methylpropionamide]·2H2 O]
≤ 1% | ≤ 1% | ≥ 10% | ≤ 1% | ≥ 100000 µg/mL | – | CC(C)(N=NC(C)(C)C(=O)NCC1CCNCC1)C(=O)NCC1CCNCC1 [Compound (6), 2,2'-azobis[N-[(piperidin-4-yl)methyl]2-methylpropionamide]·2HCl]
≤ 1% | 1.5% | ≥ 10% | – | ≥ 100000 µg/mL | – | CC(C)(N=NC(C)(C)C(=O)NCCN1CCNCC1)C(=O)NCCN1CCNCC1 [Compound (7)]
